{"source": "patent US6433007B1", "about": "“Methods for the prevention and treatment of post-surgical complications” (Alcon Manufacturing, Ltd., priority 1998, dated 2002)", "tested_on": "vitrectomy-induced PSC formation", "assay": "Post-vitrectomy posterior subcapsular cataract (PSC) formation in Dutch Belted rabbits, surgical irrigating solution", "type": "in vivo, Dutch Belted rabbit", "details": "for Incidence of Lens Line Suture Distortion: irrigating solution w/1.0 μM Compound X, rabbit, affected lenses/total lenses", "protocol": "The following example illustrates the reduction in frequency of post-vitrectomy cataract formation, employing a surgical irrigating solution containing a compound of formula (I).\nAge-matched, Dutch Belted rabbits were used in this study. At 2.5 months of age, unilateral, partial vitrectomy (vitreous replaced by irrigating solution) was performed. Briefly, rabbits (1.5-2.0 kg) were prepared for surgery by subcutaneous administration of atropine to maintain heart rate and limit lung and oropharynx fluid accumulation. Animals were then anesthetized by intramuscular administration of ketamine (45 mg/kg) and xylazine (6 mg/kg). Anesthesia was maintained by re-administration of half-doses of anesthetic every 35-45 minutes as needed. For pupil dilatation, phenylephrine HCL and cyclopentolate HCL were administered topically to the surgical eye (OD). The nonsurgical eye (OS) received Duratears and was then taped shut to prevent loss of moisture. Immediately prior to surgery, proparacaine was administered topically to the OD eye and a speculum inserted. […] Two sutures were placed in a figure eight (4 and 8 o'clock position), about 4.5 mm from the limbus, to accommodate the outer port suction cutter and endoilluminator, respectively. An inner port infusion cannula was sutured through the pars plana (6 o'clock position) about 4 mm from the limbus. Two additional punctures were made with a V-lance stiletto knife (20 gauge) for the instrument entry through the outer ports. Two sutures were then placed (3 and 9 o'clock position) in the sclera, approximately 1 mm from the limbus, to facilitate manipulation of the eye and to secure the metal contact lens holder. Viscoat® (125 μL) was then applied to the cornea followed by the placement of a wide angle lens onto the cornea. The vitreous was then removed using the SERIES TEN THOUSAND® OCUTOME® posterior-segment surgical system for 10 minutes by a combination of cutting (500 cuts/minute) and suction (90 mm Hg), while continually supplying BSS® or BSS Plus® irrigating solution, or an irrigating solution containing Compound X (1.0 μM) (at room temperature), at a rate of approximately 3.5 mL/minute and an ocular fluid pressure of 35 mm Hg. Upon completion of the surgery, instruments were withdrawn, infusion pressure reduced to 22 mm Hg, sclerotomies closed, and the conjunctiva reapproximated at the limbus with sutures. A typical surgical procedure required approximately 40-50 minutes, utilizing approximately 100 mL of irrigation solution. The amount of vitreous replaced was approximately 1.5 mL. At various times following vitrectomy, lenses were excised and immediately examined by low resolution light microscopy. Photographs were taken with a digital camera for a later assessment of line suture defects.\nThe results of this study document the early development of PSC in the Dutch Belted rabbit following vitrectomy, as quantified by scoring for the presence of distorted suture branches and sub-branches. […] Comparison of the effect of vitrectomy with standard irrigation and the Compound X-supplemented irrigation 3 month post-surgery indicated a high incidence of an acute distortion of normally straight line sutures for animals of the standard irrigation treatment groups (Table 1) but not the Compound X treated animals. […] This abnormal condition was further aggravated at […] post-vitrectomy, as recognized by the extension of existing sub-branches and the development of additional small sub-branches. […] This condition was essentially maintained throughout twelve months post-vitrectomy.\nIn contrast, 86% (or 6 out of 7 lenses) of the lenses from the Compound X treatment group were unaffected by vitrectomy with an average suture defect score of +1.7 at this same time point. The lens scores of animals treated with the Compound X supplemented therapeutic irrigation solution were essentially identical to those of naive controls (scoreavg=+1.63). […]", "data": [{"smiles": "COc1ccc2cc([C@H](C)C(=O)OCC[C@@]3(C)CCc4c(C)c(O)c(C)c(C)c4O3)ccc2c1", "note": "[Compound X, (S)-6-methoxy-[…]-methyl-naphthaleneacetic acid, (R)-2-(3,4-dihydro-6-hydroxy-2,5,7,8-tetramethyl-2H-1-benzopyran-2-yl)ethyl ester]", "values": [{"measurement": "rate of lens growth", "setting": "3-12 months post-surgery, compared to naive controls, 1.0 μM in irrigating solution during vitrectomy", "value": "essentially identical to that of naive controls"}, {"measurement": "Incidence of Lens Line Suture Distortion", "setting": "3 month post-Vitrectomy", "value": "0/8"}, {"measurement": "Incidence of Lens Line Suture Distortion", "setting": "6 month post-Vitrectomy", "value": "1/7"}, {"measurement": "Incidence of Lens Line Suture Distortion", "setting": "12 month post-Vitrectomy", "value": "1/7"}, {"measurement": "lenses unaffected by vitrectomy", "setting": "12 months post-vitrectomy, 6 out of 7 lenses, 1.0 μM in irrigating solution", "value": 86, "unit": "%"}, {"measurement": "average suture defect score", "setting": "12 months post-vitrectomy, scale 0 (straight line suture) to +6 (very crooked suture pattern with many sub-branches or mature cataract), naive controls +1.63", "value": "+1.7"}, {"measurement": "lens suture appearance (distortion, sub-branches)", "setting": "six months post-surgery, essentially maintained throughout twelve months post-vitrectomy, low resolution light microscopy", "value": "only slightly distorted suture branches which, on average, were devoid of sub-branches"}]}]}
